What was measured:
[1] = biological target: Serine/threonine-protein kinase N1 (Homo sapiens) (UniProt Q16512); assay: Inhibition of human recombinant PKN1 at 40 nM related to control ULK1
[2] = biological target: T1, Homeodomain-interacting protein kinase 4 (Homo sapiens) (UniProt Q8NE63); assay: Inhibition of human recombinant HIPK4 at 40 nM in presence of ATP by radiometric assay relative to control
T1 sequence (whole entry): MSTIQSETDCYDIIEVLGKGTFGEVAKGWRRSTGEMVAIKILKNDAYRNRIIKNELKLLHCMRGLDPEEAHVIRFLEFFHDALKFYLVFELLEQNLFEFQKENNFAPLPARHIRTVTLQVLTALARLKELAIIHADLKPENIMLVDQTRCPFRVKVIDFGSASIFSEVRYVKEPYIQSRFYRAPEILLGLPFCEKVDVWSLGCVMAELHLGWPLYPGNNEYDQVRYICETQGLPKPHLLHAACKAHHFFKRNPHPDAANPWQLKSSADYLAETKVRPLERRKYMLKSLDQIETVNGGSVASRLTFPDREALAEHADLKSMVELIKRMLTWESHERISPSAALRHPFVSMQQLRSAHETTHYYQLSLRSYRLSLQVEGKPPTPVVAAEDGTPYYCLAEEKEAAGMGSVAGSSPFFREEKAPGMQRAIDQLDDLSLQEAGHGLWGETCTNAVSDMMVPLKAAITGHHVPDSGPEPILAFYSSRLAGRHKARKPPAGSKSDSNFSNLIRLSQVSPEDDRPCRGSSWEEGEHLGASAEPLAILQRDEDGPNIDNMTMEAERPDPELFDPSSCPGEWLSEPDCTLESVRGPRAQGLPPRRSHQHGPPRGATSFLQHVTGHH

[3] = biological target: Cyclin-dependent kinase 1 (Homo sapiens) (UniProt P06493); assay: Inhibition of human recombinant CDC2 at 15 nM in presence of ATP by radiometric assay relative to control
[4] = biological target: T2, Ephrin type-A receptor 8 (Homo sapiens) (UniProt P29322); assay: Inhibition of human recombinant EphA8 at 15 nM related to control ULK1
T2 sequence (whole entry): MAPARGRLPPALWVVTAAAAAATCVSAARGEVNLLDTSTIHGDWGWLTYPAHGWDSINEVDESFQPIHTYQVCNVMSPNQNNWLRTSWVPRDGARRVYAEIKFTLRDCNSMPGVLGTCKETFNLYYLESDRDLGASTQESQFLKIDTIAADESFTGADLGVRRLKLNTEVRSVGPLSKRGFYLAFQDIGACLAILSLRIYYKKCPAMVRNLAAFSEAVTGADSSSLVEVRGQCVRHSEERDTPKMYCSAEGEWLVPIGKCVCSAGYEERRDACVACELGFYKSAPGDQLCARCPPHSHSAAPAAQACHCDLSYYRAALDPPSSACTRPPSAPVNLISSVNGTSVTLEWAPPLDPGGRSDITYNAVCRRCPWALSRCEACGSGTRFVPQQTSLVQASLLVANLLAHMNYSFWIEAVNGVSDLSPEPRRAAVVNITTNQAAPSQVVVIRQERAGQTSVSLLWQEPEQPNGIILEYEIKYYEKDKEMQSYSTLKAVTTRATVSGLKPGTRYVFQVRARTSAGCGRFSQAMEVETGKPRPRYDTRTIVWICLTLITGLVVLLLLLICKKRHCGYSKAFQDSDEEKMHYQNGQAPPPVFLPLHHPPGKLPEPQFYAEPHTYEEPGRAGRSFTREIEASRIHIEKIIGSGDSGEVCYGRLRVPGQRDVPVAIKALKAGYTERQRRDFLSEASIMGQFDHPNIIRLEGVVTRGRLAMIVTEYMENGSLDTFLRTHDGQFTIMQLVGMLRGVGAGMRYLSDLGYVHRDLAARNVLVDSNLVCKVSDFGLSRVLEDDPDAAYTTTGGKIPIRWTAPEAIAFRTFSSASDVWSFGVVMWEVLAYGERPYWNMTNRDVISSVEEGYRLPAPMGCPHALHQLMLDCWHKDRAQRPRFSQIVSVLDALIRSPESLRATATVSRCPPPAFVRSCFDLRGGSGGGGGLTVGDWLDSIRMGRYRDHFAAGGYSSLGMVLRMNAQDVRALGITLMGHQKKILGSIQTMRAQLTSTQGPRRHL

[5] = biological target: Calcium/calmodulin-dependent protein kinase kinase 2 (Homo sapiens) (UniProt Q96RR4); assay: Inhibition of human recombinant CaMKK2 at 15 nM in presence of ATP by radiometric assay relative to control
[6] = biological target: T3, Serine/threonine-protein kinase ULK2 (Homo sapiens) (UniProt Q8IYT8); assay: Inhibition of human recombinant ULK2 at 15 nM related to control ULK1
T3 sequence (whole entry): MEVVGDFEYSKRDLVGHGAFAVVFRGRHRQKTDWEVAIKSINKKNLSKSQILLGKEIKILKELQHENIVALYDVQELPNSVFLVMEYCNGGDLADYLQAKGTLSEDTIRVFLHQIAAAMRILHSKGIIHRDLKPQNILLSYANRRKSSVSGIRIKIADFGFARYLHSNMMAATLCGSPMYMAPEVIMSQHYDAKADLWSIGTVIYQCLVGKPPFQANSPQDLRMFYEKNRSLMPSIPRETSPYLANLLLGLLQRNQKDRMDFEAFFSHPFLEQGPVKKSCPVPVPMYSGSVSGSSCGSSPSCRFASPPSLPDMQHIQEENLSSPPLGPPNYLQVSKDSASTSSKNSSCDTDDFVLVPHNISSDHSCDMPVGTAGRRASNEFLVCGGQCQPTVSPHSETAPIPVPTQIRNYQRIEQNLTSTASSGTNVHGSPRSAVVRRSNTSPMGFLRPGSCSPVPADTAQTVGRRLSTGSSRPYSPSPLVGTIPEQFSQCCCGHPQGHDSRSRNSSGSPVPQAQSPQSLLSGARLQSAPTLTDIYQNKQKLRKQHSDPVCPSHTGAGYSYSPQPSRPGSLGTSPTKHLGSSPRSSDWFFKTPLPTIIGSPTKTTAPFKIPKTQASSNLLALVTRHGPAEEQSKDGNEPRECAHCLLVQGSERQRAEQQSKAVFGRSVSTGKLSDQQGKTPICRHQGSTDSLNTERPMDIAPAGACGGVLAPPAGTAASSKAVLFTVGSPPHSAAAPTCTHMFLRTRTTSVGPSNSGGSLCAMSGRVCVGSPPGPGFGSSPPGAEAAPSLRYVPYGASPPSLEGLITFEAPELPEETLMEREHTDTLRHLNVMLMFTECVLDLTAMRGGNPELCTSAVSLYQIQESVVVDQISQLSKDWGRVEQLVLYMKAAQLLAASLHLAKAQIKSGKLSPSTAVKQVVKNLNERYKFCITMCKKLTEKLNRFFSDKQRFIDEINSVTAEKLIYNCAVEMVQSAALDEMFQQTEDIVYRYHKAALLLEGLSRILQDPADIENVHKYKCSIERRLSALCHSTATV

[7] = biological target: G protein-coupled receptor kinase 6 (Homo sapiens) (UniProt P43250); assay: Inhibition of human recombinant GPRK6 at 15 nM related to control ULK1
Chain of G protein-coupled receptor kinase 6 (Homo sapiens) (P43250 whole entry, looked up): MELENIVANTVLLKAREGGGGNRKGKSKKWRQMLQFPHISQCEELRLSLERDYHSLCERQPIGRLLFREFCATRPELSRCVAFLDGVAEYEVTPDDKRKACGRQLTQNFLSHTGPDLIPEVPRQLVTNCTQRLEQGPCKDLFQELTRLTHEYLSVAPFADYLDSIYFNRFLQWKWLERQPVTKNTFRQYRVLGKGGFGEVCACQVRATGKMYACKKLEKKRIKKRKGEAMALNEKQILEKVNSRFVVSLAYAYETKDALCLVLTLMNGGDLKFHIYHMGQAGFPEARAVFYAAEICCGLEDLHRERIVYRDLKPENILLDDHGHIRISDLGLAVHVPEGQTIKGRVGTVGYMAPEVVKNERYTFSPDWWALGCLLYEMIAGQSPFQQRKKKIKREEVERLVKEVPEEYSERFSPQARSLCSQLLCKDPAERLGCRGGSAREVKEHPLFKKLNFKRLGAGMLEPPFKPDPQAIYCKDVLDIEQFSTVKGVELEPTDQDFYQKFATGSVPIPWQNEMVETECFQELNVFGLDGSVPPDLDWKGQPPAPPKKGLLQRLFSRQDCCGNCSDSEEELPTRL

Chain of Serine/threonine-protein kinase N1 (Homo sapiens) (Q16512 2-942 limits assumed): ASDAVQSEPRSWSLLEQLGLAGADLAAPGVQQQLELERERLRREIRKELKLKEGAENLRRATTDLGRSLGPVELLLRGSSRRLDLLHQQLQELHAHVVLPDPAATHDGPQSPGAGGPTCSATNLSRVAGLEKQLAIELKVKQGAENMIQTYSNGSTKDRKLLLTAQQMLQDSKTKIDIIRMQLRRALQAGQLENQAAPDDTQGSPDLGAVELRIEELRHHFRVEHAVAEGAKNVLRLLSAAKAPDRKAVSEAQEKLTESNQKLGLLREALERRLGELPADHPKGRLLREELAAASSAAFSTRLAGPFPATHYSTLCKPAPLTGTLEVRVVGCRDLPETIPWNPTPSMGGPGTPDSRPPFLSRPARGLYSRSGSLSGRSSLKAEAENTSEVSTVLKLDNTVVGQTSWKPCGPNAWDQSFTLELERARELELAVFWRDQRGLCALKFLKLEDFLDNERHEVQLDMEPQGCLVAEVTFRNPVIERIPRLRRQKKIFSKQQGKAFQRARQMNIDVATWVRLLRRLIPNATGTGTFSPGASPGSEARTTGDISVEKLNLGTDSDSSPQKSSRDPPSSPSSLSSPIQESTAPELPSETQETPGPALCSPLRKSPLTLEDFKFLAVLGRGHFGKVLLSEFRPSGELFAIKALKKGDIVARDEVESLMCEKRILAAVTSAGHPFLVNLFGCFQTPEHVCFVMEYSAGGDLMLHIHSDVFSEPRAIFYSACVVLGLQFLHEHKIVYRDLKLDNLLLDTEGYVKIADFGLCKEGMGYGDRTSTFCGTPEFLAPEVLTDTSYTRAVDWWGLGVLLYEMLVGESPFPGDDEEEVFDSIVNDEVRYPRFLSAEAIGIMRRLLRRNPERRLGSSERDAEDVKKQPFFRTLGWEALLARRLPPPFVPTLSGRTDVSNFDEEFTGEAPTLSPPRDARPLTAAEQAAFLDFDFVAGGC
Chain of Cyclin-dependent kinase 1 (Homo sapiens) (P06493 whole entry, looked up): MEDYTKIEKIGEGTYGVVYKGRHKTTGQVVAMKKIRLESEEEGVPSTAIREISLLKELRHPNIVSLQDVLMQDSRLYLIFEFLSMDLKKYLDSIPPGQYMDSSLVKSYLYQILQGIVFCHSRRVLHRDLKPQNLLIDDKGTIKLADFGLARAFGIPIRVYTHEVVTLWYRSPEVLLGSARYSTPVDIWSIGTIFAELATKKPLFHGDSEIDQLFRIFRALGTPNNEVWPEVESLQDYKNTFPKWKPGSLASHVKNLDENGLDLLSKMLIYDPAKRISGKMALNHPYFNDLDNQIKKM
Chain of Calcium/calmodulin-dependent protein kinase kinase 2 (Homo sapiens) (Q96RR4 2-588 limits assumed): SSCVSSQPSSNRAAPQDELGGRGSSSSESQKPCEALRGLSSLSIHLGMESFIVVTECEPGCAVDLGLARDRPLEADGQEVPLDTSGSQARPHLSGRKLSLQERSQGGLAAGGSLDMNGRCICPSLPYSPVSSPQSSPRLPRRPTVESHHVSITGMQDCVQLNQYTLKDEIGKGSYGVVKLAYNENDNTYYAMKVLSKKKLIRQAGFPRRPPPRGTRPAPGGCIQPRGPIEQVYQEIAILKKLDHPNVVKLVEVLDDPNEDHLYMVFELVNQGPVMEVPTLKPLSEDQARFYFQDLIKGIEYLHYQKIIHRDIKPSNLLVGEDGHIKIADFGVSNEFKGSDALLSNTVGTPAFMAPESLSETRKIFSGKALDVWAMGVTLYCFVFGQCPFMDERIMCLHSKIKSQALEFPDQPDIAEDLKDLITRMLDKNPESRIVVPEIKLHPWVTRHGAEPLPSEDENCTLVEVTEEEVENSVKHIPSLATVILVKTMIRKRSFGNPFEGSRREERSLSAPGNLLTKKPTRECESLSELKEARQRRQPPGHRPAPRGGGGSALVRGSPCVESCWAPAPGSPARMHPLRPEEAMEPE

Compound: O=C(N[C@@H](C1CC1)C(F)(F)F)c1cc(-c2cnn3cc(-c4ccc(F)cc4)cnc23)cs1
- fold change (FC) [1]: 0
- inhibition [2]: 0%

Compound: CC(C)[C@H](NC(=O)c1cc(-c2cnn3cc(-c4ccc(OCCN5CCCCC5)cc4)cnc23)cs1)C(F)(F)F
- inhibition [3]: 24%
- fold change (FC) [4]: 0
- inhibition [5]: 1%
- fold change (FC) [6]: 0.83
- fold change (FC) [7]: 0

Reference: ChEMBL document CHEMBL5653631, “A Potent and Selective ULK1 Inhibitor Suppresses Autophagy and Sensitizes Cancer Cells to Nutrient Stress” (iScience, 2018)
